Tests used:
[1] = tested on: Neointima in der ballonisierten Arteria carotis; experiment: Neointima formation after balloon catheter injury (ballooning) of the carotid artery, morphometry of cross-sections 14 days later; assay type: in vivo, Ratten, Stamm: RORO
Source text: Eine Arterie wird mit Hilfe eines Ballonkatheters, der durch das Gefässlumen geschoben wird, von innen verletzt (Ballonisierung). Dabei wird die innerste Zellschicht, das Endothel, entfernt und die Muskelzellen der Media leicht geschädigt. Die Muskelzellen werden dadurch zur Proliferation und Migration in die Intima angeregt. […] Das Ausmass der Neointimabildung wird anschliessend an Querschnitten durch die Arterie mit Hilfe morphometrischer Methoden ausgemessen.
Die Tiere wurden randomisiert in eine Kontrollgruppe und in eine Behandlungsgruppe eingeteilt. Es wurden je 11 Tiere als Kontroll- bzw. behandelte Tiere eingesetzt.
Die Tiere der Behandlungsgruppe erhielten 20 Tage lang soviel Cilazapril dem Futter beigemischt, dass die tägliche Cilazaprilaufnahme durchschnittlich 10 mg/kg betrug. […] Die Kontrolltiere erhielten das gleiche Laborfutter ohne Zusatz. Die Ballonisierung der Arteria carotis communis wurde 6 Tage nach der ersten Gabe von Cilazapril durchgeführt. Die Tiere wurden mit Aetherinhalation und subcutaner Verabreichung von 200 mg/kg Hexobarbital-Na narkotisiert. Die distale linke Arteria carotis communis und das Bifurkationsgebiet von Carotis externa und interna wurden freigelegt. Der FOGARTY-Katheter (12-060-2F, Edwards Laboratories, Santa Anna, CA, USA) wurde durch die Arteria carotis externa in die Arteria carotis communis bis zum Aortenbogen eingeführt, der Ballon mit Wasser gefüllt (Füllungsvolumen ca. 0,01-0,015 ml) und gegen einen leichten Widerstand zurückgezogen. Dieses Procedere wurde zweimal wiederholt. Die Arteria carotis externa wurde ligiert und die Wunde vernäht. Die Operateure hatten keine Kenntnis, ob es sich um behandelte oder unbehandelte Tiere handelte.
14 Tage nach der Ballonisierung wurden die Ratten mit Aether anaesthesiert und die Carotiden durch Perfusion mit Fixationsmittel (2,5% Glutaraldehyd in 0,1 M Phosphatpuffer, pH 7,4), fixiert. Hierzu wurde eine Sonde durch den linken Herzventrikel in die aufsteigende Aorta geführt (Einfluss) und eine zweite Sonde durch den rechten Ventrikel in den Vorhof geschoben (Abfluss). Das Gefässsystem wurde zunächst mit 10 ml PBS ("phosphate buffered saline"; gepufferte isotonische NaCI-Lösung) gespült und dann 15 min lang mit Fixationsmittel bei einem Druck von 90 mm Quecksilbersäule fixiert. Anschliessend wurden sowohl die linke (ballonisierte) als auch die rechte (nicht-ballonisierte) Arteria carotis (Kontrolle) herauspräpariert, von Gewebe befreit und zur weiteren Fixation in 2,5% Glutaraldehyd in 0,1 M Cacodylat-Puffer eingelegt. […] Das mittlere Segment wurde für die morphologischen Untersuchungen verwendet.
Semidünne Querschnitte (1 µm dick) wurden mit Toluidinblau und basischem Fuchsin gefärbt.
Aus diesen Messungen wurden folgende Parameter berechnet: • (6) Die mittlere Dicke der Neointima in um, berechnet als Kreisring aus der Querschnittsfläche der Neointima. Hierzu wurde der Neointimaquerschnitt in einen Kreisring transformiert, dessen äussere Begrenzung die Lamina elastica interna bildete. • (7) Die Querschnittsfläche der Neointima zur Querschnittsfläche der Media in Prozent (normalisierte Neointimafläche) • (8) Der Prozentsatz der mit Neointima bedeckten Lamina elastica interna.

[2] = Lowering of systolic blood pressure by the dose mixed into the feed; assay type: in vivo, Ratten, Stamm: RORO; settings: average daily intake 10 mg/kg mixed into feed
Protocol: Die Tiere der Behandlungsgruppe erhielten 20 Tage lang soviel Cilazapril dem Futter beigemischt, dass die tägliche Cilazaprilaufnahme durchschnittlich 10 mg/kg betrug. Es handelt sich um eine Dosierung, die den systolischen Blutdruck um ca. 25% senkte. Die Kontrolltiere erhielten das gleiche Laborfutter ohne Zusatz. Die Ballonisierung der Arteria carotis communis wurde 6 Tage nach der ersten Gabe von Cilazapril durchgeführt. Die Tiere wurden mit Aetherinhalation und subcutaner Verabreichung von 200 mg/kg Hexobarbital-Na narkotisiert. Die distale linke Arteria carotis communis und das Bifurkationsgebiet von Carotis externa und interna wurden freigelegt. Der FOGARTY-Katheter (12-060-2F, Edwards Laboratories, Santa Anna, CA, USA) wurde durch die Arteria carotis externa in die Arteria carotis communis bis zum Aortenbogen eingeführt, der Ballon mit Wasser gefüllt (Füllungsvolumen ca. 0,01-0,015 ml) und gegen einen leichten Widerstand zurückgezogen. Dieses Procedere wurde zweimal wiederholt. Die Arteria carotis externa wurde ligiert und die Wunde vernäht. Die Operateure hatten keine Kenntnis, ob es sich um behandelte oder unbehandelte Tiere handelte.

[3] = versus untreated control animals, about 10 mg/kg daily in feed, 14 days after ballooning

CCOC(=O)[C@H](CCc1ccccc1)N[C@H]1CCCN2CCC[C@@H](C(=O)O)N2C1=O [Cilazapril]
Mittlere Dicke der Neointima ([1]; calculated as circular ring from the neointima cross-sectional area, mean ± SD, n = 11, about 10 mg/kg daily in feed, 14 days after ballooning, controls 50 ± 25): 8±7 µm | Querschnittsfläche des Lumens ([1]; mean ± SD, n = 11, about 10 mg/kg daily in feed for 20 days, 14 days after ballooning, untreated controls 324 x 10^3): 468 x 10^3±114 x 10^3 µm^2 | Prozentsatz von mit Neointima bedeckter Lamina elastica interna ([1]; mean ± SD, n = 11, about 10 mg/kg daily in feed, 14 days after ballooning, controls 93 ± 15): 35±29% | Querschnittsfläche der Neointima ([1]; mean ± SD, n = 11, cilazapril about 10 mg/kg daily in feed for 20 days, ballooning on day 6, left carotid fixed 14 days after ballooning, untreated controls 109 x 10^3): 20 x 10^3±18 x 10^3 µm^2 | Verhältnis von Querschnittsfläche der Neointima zu Querschnittsfläche der Media ([1]; normalised neointima area, mean ± SD, n = 11, about 10 mg/kg daily in feed, 14 days after ballooning, controls 101 ± 43): 23±21% | Tiere mit vollständig gehemmter Neointimabildung ([1]; number of treated animals out of 11, about 10 mg/kg daily in feed, 14 days after ballooning): 3 von 11 | Hemmung (Querschnittsfläche der Neointima) [1, 3]: 82% | Hemmung (mittlere Dicke der Neointima) [1, 3]: 84% | Senkung des systolischen Blutdrucks [2]: ca. 25%
